Here are results for two compounds from patent EP0641569A1, “ANTIPRURITIC” (ONO PHARMACEUTICAL CO., LTD., priority 1992, dated 1993).

One series in a line: Acute toxicity in rats. To be noted: Jcl-SD, rat, in vivo, read-out: LD₅₀. The procedure:
(§1) Compound A was orally or subcutaneously administered to each ten male and female 6-weeks aged Jcl-ICR mice and Jcl-SD rats, respectively per group. Two groups of Compound A (1000 and 2000 mg/kg) were used by suspending into 0.5% carboxymethyl cellulose (CMC) aqueous solution at the concentration of 100 mg/ml.

A short description of a further series: Acute toxicity in mice. The conditions noted are these: Jcl-ICR, mouse, in vivo, read-out: LD₅₀. How it is done: as §1
Another series deals with patients in hemodialysis. The experiment in a line: Treatment for pruritus cutanea in hemodialysis (improvement score of itching and rash). The conditions noted are these: for improvement in itching: four patients in hemodialysis with severe itching, no effect with other agents, hydrate. Format: in vivo, human. The procedure:
8-[p-(4-phenylbutoxy)benzoyl]amino-2-(tetrazol-5-yl)-4-oxo-4H-1-benzopyran·1/2 hydrate (abbreviated as "Compound A" hereafter) were administered at the dose of 225 mg or 450 mg per day to four patients in hemodialysis (dialyzed for 3 to 11 years) who have severe itching and show no effect with other agents [no effect even with antihistamine, azerastin (anti-allergy agent already on the market) and steroid ointment]. The evaluation was carried out by improvement score of subjective symptom according to "The Standard of degree of Itching" and of rash (judged by slide).

The mark [1] stands for this setting: 225 mg or 450 mg per day, four patients in hemodialysis.

Bounds are passed on as bounds.

In the case of `O=C(Nc1cccc2c(=O)cc(-c3nnn[nH]3)oc12)c1ccc(OCCCCc2ccccc2)cc1` [Compound A, 8-[p-(4-phenylbutoxy)benzoyl]amino-2-(tetrazol-5-yl)-4-oxo-4H-1-benzopyran·1/2 hydrate], the LD50 in “Acute toxicity in rats” (po, orally, female) is greater than 2000 mg/kg; in “Acute toxicity in rats” (po, orally, male), greater than 2000 mg/kg; in the series “Acute toxicity in rats” (sc, subcutaneously, female), greater than 2000 mg/kg; in the series “Acute toxicity in rats” (sc, subcutaneously, male) it was greater than 2000 mg/kg; in “Acute toxicity in mice” (po, orally, female), greater than 2000 mg/kg; in “Acute toxicity in mice” (po, orally, male), greater than 2000 mg/kg. The LD50 in “Acute toxicity in mice” (sc, subcutaneously, female) was greater than 2000 mg/kg; in “Acute toxicity in mice” (sc, subcutaneously, male), greater than 2000 mg/kg. Besides, the side effect entry in the series with patients in hemodialysis (setting [1]) is on record as “no side effect”. In the series on patients in hemodialysis (setting [1]), the “subjective symptom and objective symptom (rash), daytime and nighttime” value was “Improvement was shown”. Also, the improvement in itching result is “became better” in the series with patients in hemodialysis (225 mg or 450 mg per day) and “Remarkable improvement” in the series on patients in hemodialysis (225 mg or 450 mg per day, listed as 8-[p-(4-phenylbutoxy)benzoyl]amino-2-(tetrazol-5-yl)-4-oxo-4H-1-benzopyran semih).

On to `CN1CCCC(n2nc(Cc3ccc(Cl)cc3)c3ccccc3c2=O)CC1` (stereo not shown) [azerastin, reference compound], for which the effect on itching entry in the series on patients in hemodialysis (earlier treatment of the same four patients with other agents) was “no effect”.
